Data published in patent publication US10759905B2, “Biodegradable amphiphilic polymer, polymeric vesicles prepared therefrom, and application of biodegradable amphiphilic polymer in preparation of medicines for targeted therapy of lung cancer” (priority 2015, dated 2020).
Where a name gives a salt, the structure may show the parent alone.

How the values were obtained:
[1] = test system: H460 human lung cancer cells; assay: MTT assay, toxicity of drug-loaded vesicles on H460 cells; type: cell-based; details: NCI-H460, 4 h co-cultivation, then 44 h in fresh medium
Description: MTT assay was used to test the toxicity of the polymeric vesicles on H460 human lung cancer cells. […] After co-cultivation for 4 hours, the samples were aspirated and replaced with fresh medium to continue incubation for 44 hours. The subsequent addition of MTT, treatment, and measurement of absorbance were the same as those in Example 26.

[2] = test system: H460 subcutaneous lung cancer; assay: Anti-tumor effect in mice bearing H460 subcutaneous lung cancer; type: in vivo
Source text: The establishment of a subcutaneous H460 tumor-bearing mice model was the same as that in Example 33.

[3] = test system: orthotopic A549 lung cancer (A549-Luc); details: for bioluminescence intensity of the lung tumor / tumor growth: i.v. on Days 0, 4, 8 and 12, within 16 days; for survival of the mice (all survived / all dead): orthotopic A549
Description: Balb/C nude mice weighing approximately 18 to 20 grams (aged 4 to 6 weeks) were selected for the experiment. 5×10^6 bioluminescent A549 human lung cancer cells (A549-Luc) were directly injected in the lungs. After about 10 days, the mice were observed by an in vivo imaging system for small animals. […] From Day 0 to Day 16, the body weights of the mice were measured every four days. The bioluminescence intensity of the lung tumor in mice was monitored using an in vivo imaging system for small animals. The survival of the mice was observed up to 45 days.
The PTG-loaded cRGD/CLPs, the non-targeted self-crosslinked polymeric vesicle CLPs, Taxol, and PBS were injected into mice, respectively.

A549 lung cancer cells = assay: MTT assay, toxicity of drug-loaded vesicles on A549 cells; type: cell-based; details: Homo sapiens, A549, read-out: half inhibition concentration (IC50) for A549 cells
Description: The toxicity of the polymeric vesicles on A549 cells was tested by MTT assay. […] The concentrations of DOX.HCl were 0.01, 0.1, 0.5, 1, 5, 10, 20 and 40 μg/mL, respectively. The content of the targeting molecules ranged from 10%, 20% to 30%; the non-targeted drug-loaded self-crosslinked polymeric vesicle group and the free DOX.HCl group were used as control groups. After co-cultivation for 4 hours, the samples were aspirated and replaced with fresh medium to continue incubation for 44 hours.

[4] = test system: A549 subcutaneous lung cancer; assay: Anti-tumor effect in mice bearing A549 subcutaneous lung cancer; type: in vivo; details: i.v. on Day 0, 4, 8 and 12, DOX 10 mg/kg; Day 18
Description: The volumes of the tumor were measured by a vernier caliper. The tumor volume was calculated as: V=(L×W×H)/2 (wherein L was the tumor length, W was the tumor width, and H was the tumor thickness). The survival of the mice were observed up to 45 days.
The establishment of a subcutaneous A549 tumor-bearing mice model, administration via tail vein, and data collection were the same as those in Example 37.

in vivo = details: Balb/C nude, mouse, iv, 10 mg/kg

| Structure (SMILES) | IC50 [1] | body weight decrease ([2]; Day 10) | tumor growth ([2]; i.v., CPT.HCl, Day 18) | survival of the mice (all survived / all dead) ([2]; subcutaneous H460) | body weight decrease ([3]; Day 3) | bioluminescence intensity of the lung tumor / tumor growth [3] | survival of the mice (all survived / all dead) [3] | IC50 (A549 lung cancer cells) | tumor growth [4] | half-life (in vivo) |
| --- | --- | --- | --- | --- | --- | --- | --- | --- | --- | --- |
| CCc1c2c(nc3ccc(OC(=O)N4CCC(N5CCCCC5)CC4)cc13)-c1cc3c(c(=O)n1C2)COC(=O)[C@]3(O)CC [CPT.HCl, irinotecan hydrochloride] | 3.09 µg/mL | 18% | could also inhibit the growth of tumor | ≤ 28 days | 21% | could also inhibit the growth of tumor | ≤ 34 days |  |  |  |
| CC(=O)O[C@H]1C(=O)[C@@]2(C)[C@H]([C@H](OC(=O)c3ccccc3)[C@]3(O)C[C@H](OC(=O)[C@H](O)[C@@H](NC(=O)c4ccccc4)c4ccccc4)C(C)=C1C3(C)C)[C@]1(OC(C)=O)CO[C@@H]1C[C@@H]2O [PTX, paclitaxel] |  |  |  |  |  | could also inhibit the growth of tumor | ≤ 29 days |  |  |  |
| COc1cccc2c1C(=O)c1c(O)c3c(c(O)c1C2=O)C[C@@](O)(C(=O)CO)C[C@@H]3O[C@H]1C[C@H](N)[C@H](O)[C@H](C)O1 [DOX.HCl, doxorubicin hydrochloride] |  |  |  |  |  | could also inhibit the growth of tumor | ≤ 30 days | 4.89 µg/mL | could also inhibit the growth of tumor | 16.2 min |
